From patent publication US8362248B2, “Substituted pyridinyl and pyrimidinyl derivatives as modulators of metabolism and the treatment of disorders related thereto” (Arena Pharmaceuticals, Inc., priority 2005, dated 2013)
Converted amounts (≈) assume the structure as drawn. Where two headings read alike, the source gives them in different places. One block for each compound: values may come before it.

How the values were obtained:
Aqueous solubility = type: physicochemical; settings: aqueous medium, aqueous buffer
RUP3 = target: T1, RUP3 (Homo sapiens, UniProt Q8TDV5); test: RUP3 dose responses in melanophores (melanophore dispersion assay); type: cell-based
T1 construct: ID; No:2; expressed in transfected cells; host or cells: melanophores (cultured as per Potenza and Lerner 1992), electroporated
T1 sequence (Q8TDV5 with tags, fused parts or gaps): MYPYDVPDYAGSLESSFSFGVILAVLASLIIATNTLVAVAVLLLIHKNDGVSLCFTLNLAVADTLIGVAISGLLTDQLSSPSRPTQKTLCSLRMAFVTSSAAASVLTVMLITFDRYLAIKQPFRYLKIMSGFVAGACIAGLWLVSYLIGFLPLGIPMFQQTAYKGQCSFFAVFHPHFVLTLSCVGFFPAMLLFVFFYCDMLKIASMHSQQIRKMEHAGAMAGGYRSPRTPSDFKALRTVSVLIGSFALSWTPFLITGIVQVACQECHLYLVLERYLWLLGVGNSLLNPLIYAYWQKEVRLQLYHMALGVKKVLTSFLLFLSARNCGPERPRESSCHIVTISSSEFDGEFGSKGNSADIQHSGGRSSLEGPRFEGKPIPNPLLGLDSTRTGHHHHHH
Description: Melanophores are maintained in culture as reported by Potenza, M. N. and Lerner, M. R., in Pigment Cell Research, Vol. 5, 372-378, 1992 and transfected with the RUP3 expression vector (pCMV) using electroporation. Following electroporation, the transfected cells are plated into 96 well plates for the assay. The cells are then allowed to grow for 48 hours in order to both recover from the electroporation procedure and attain maximal receptor expression levels.
On the assay day, the growth medium on the cells is replaced with serum-free buffer containing 10 nM melatonin. The melatonin acts via an endogenous Gi-coupled GPCR in the melanophores to lower intracellular cAMP levels. In response to lowered cAMP levels, the melanophores translocate their pigment to the center of the cell. The net effect of this is a significant decrease in the absorbance reading of the cell monolayer in the well, measured at […].
After a 1-hour incubation in melatonin, the cells become completely pigment-aggregated. At this point a baseline absorbance reading is collected. Serial dilutions of test compounds are then added to the plate and compounds that stimulate RUP3 produce increases in intracellular cAMP levels. In response to these increased cAMP levels, the melanophores translocate their pigment back into the cell periphery. After one hour, stimulated cells are fully pigment-dispersed. The cell monolayer in the dispersed state absorbs much more light in the 600-650 nm range. The measured increase in absorbance compared to the baseline reading allows one to quantitate the degree of receptor stimulation and plot a dose-response curve.
The compounds in the above examples were screened using the melanophore dispersion assay, as described above.

[1] = Rat dose-range PK study (dose escalation pharmacokinetics); type: in vivo
Description: Animal, Compound Formulation, Dosing, and Blood Sample Collection: […]
Male SD rats (250-300 g) were purchased from Charles River Laboratory; upon reciept, animals were placed under light-dark cycle (6:30 am-6:30 pm lights on). They were allowed ad libitum access to water and 4 pieces of food daily (Purina Meals Rodent Diet, Product Number 5001).
Compound formulations were prepared as following: The IV injection formulation was prepared in 20% hydroxypropyl-beta-cyclodextrin with concentration of […]. The PO formulations were prepared in 0.5% hydroxypropyl methylcellulose with concentrations of […]. […]
Plasma samples were prepared as follows. […] Calibration standards were typically prepared in the range of 2.0 ng/mL to 10 μg/mL with linear regression for quantitation. […]
Results were calculated by noncompartmental analysis using WinNonlin Pro version 3.1 based on plasma concentration—time profiles for individual animals. Plasma levels were determined as described above and the oral and intravenous area under the concentration vs. time curve (AUC was calculated using the linear trapezoidal rule up to the last measurable concentration and was then extrapolated to infinity) were compared to determine the % bioavailability (% F) by the following formula: Dose (IV)*AUC (oral)/Dose (oral)*AUC (IV). […]

Male C57b1/6J mice = test: Oral glucose tolerance test (oGTT) in mice; type: in vivo; settings: for lowering of blood glucose in oGTT (in words): mice after challenge with glucose; for Mean % Inhibition of Glucose Excursion: oGTT, mice, p.o.
Description: A. Oral Glucose tolerance test (oGTT)
[…] Compounds were delivered orally via a gavage needle (p.o., volume 10 mL/Kg). At time 0, levels of blood glucose were assessed using a glucometer (Elite XL, Bayer), and mice were administered either vehicle (20% hydroxypropyl-beta-cyclodextrin) or test compound. Thirty minutes after administration of test compound, levels of blood glucose were again assessed, and mice were administered dextrose orally at a dose of 3 g/Kg. Blood glucose measurements were then taken 20 min, 40 min, 60 min and 120 min after this time.

[2] = melanophore dispersion assay, read-out: RUP3 (EC50)

solubility (Aqueous solubility; pH=2): 1120 µg/mL (≈ 2330 µM)
solubility (Aqueous solubility; pH=5): 190 µg/mL (≈ 395 µM)
SMILES: COc1c(OC2CCN(C(=O)OC(C)C)CC2)ccnc1Nc1ccc(S(C)(=O)=O)cc1F [Compound 77, 4-[2-(2-Fluoro-4-methanesulfonyl-phenylamino)-3-methoxy-pyridin-4-yloxy]-piperidine-1-carboxylic acid isopropyl ester]

SMILES: COc1cc(S(C)(=O)=O)ccc1Nc1ncnc(OC2CCN(C(=O)OC(C)C)CC2)c1OC [Compound 10, 4-[6-(4-Methanesulfonyl-2-methoxy-phenylamino)-5-methoxy-pyrimidin-4-yloxy]-piperidine-1-carboxylic acid isopropyl ester]
EC50 (RUP3; [2]): 26 nM

SMILES: COc1c(Nc2ccc(S(C)(=O)=O)cc2F)ncnc1OC1CCN(C(=O)OC(C)C)CC1 [Compound 24, 4-[6-(2-Fluoro-4-methanesulfonyl-phenylamino)-5-methoxy-pyrimidin-4-yloxy]-piperidine-1-carboxylic acid isopropyl ester]
EC50 (RUP3; [2]): 0.49 nM

SMILES: COc1c(Nc2ccc(S(C)(=O)=O)nc2C)ncnc1OC1CCN(C(=O)OC(C)C)CC1 [Compound 84, 4-[6-(6-Methanesulfonyl-2-methyl-pyridin-3-ylamino)-5-methoxy-pyrimidin-4-yloxy]-piperidine-1-carboxylic acid isopropyl ester]
EC50 (RUP3): 3.55 nM
agonist activity at the RUP3 receptor (in words) (RUP3): potent agonist
dose escalation pharmacokinetics, AUC vs dose (in words) ([1]; FIG. 5): linear dose escalation pharmacokinetics
dose escalation pharmacokinetics, AUC vs dose (in words) ([1]; FIG. 5, listed as 4-[6-(6-Methanesulfonyl-2-methyl-pyridin-3-ylamino)-5-methoxy-pyrimidin-4-yloxy]): essentially linear dose escalation pharmacokinetics
reduction in AUC (blood glucose, oGTT) (Male C57b1/6J mice; Experiment 1, 30 mpk): 38%
reduction in AUC (blood glucose, oGTT) (Male C57b1/6J mice; Experiment 2, 30 mpk): 84%
lowering of blood glucose in oGTT (in words) (Male C57b1/6J mice): able to lower blood glucose

SMILES: COc1c(Oc2ccc(S(C)(=O)=O)cc2F)ncnc1OC1CCN(C(=O)OC(C)C)CC1 [Compound 76, 4-[6-(2-Fluoro-4-methanesulfonyl-phenoxy)-5-methoxy-pyrimidin-4-yloxy]-piperidine-1-carboxylic acid isopropyl ester]
EC50 (RUP3; [2]): 2.51 nM

SMILES: CCOc1cc(F)c(Nc2ncnc(OC3CCN(C(=O)OC(C)C)CC3)c2OC)cc1F [Compound 75, 4-[6-(4-Ethoxy-2,5-difluoro-phenylamino)-5-methoxy-pyrimidin-4-yloxy]-piperidine-1-carboxylic acid isopropyl ester]
lowering of blood glucose in oGTT (in words) (Male C57b1/6J mice): lowered blood glucose in a dose-dependent manner
Mean % Inhibition of Glucose Excursion (Male C57b1/6J mice; dose 3 mg/Kg): 22%
Mean % Inhibition of Glucose Excursion (Male C57b1/6J mice; dose 10 mg/Kg): 34%

solubility (Aqueous solubility; pH=2): 1450 µg/mL (≈ 3150 µM)
solubility (Aqueous solubility; pH=5): 380 µg/mL (≈ 825 µM)
SMILES: COc1c(Nc2ccc(NCCO)nc2C)ncnc1OC1CCN(C(=O)OC(C)C)CC1 [Compound 78, 4-{6-[6-(2-Hydroxy-ethylamino)-2-methyl-pyridin-3-ylamino]-5-methoxy-pyrimidin-4-yloxy}-piperidine-1-carboxylic acid isopropyl ester]
